Measured values from article PMC8556396, “Statin-mediated disruption of Rho GTPase prenylation and activity inhibits respiratory syncytial virus infection” (Communications Biology, 2021).
Several values for one entry are separate records, joined by “and”; a condition that tells them apart may be missing. Equal entries are not always repeated. Structures can show the parent of a compound that is named as a salt.

What was measured:
RSV-GFP [1] = assay: microbe, parasite or virus in culture; format: cell-based, Respiratory syncytial virus
Method in brief: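 Cells infected with RSV-GFP (MOI 0.5) for 90 min in serum-free medium; library compounds added within 1 h of infection at 10 µM final (0.1% DMSO). At 48 h p.i., infection rate was imaged as fraction of nuclei within GFP area, with mean nuclear intensity and size serving as the viability measure.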

HEp-2 cells = assay: In vitro cytotoxicity assay (MTT); format: cell-based
RSV-GFP [2] = format: cell-based, Respiratory syncytial virus
Protocol: WD-PNECs were cultured as per the referenced protocol. Using a sterile cytology brush, nasal scrapings were obtained from healthy volunteers with no known history of lung disease or respiratory medication use. Cells were then seeded on a collagen-coated flask and maintained in Bronchial Epithelial Cell Growth Medium (BEGM) (CC-3170, Lonza) or PneumaCult-Ex (05008, […] Technologies). Upon reaching 70% confluency, cells were passaged and seeded on collagen-coated transwell inserts (6.5 mm diameter, 0.4 µm pore size) (3413, Corning). An air–liquid interface was generated by removing media on the apical side of the cells and replacing the remaining media with PneumaCult-ALI media (05001, […] Technologies). By week 3, cells were differentiated with a ciliated phenotype. Transepithelial resistance was quantified using an ohmmeter (World Precision Instruments) to evaluate epithelial barrier function prior to experimentation. Cells were apically infected with RSV-GFP (MOI 0.01) and infection rates were quantified from GFP signal.

RSV-GFP [3] = assay: Time-of-drug addition assay; format: cell-based, Respiratory syncytial virus; conditions: for antiviral effect by time of addition: 3.5 µM; for RSV-GFP inhibition (% of maximum): MOI 2.0, read 24 h p.i.
Protocol: Time-of-drug addition assays are routinely used to assess the approximate stage of viral infection affected by a drug[25]. HEp-2 cells were seeded to black, flat, microclear-bottom 96-well plates (Greiner Bio-One) and infected with RSV-GFP (MOI 2.0). […]. RSV-GFP infection rates were quantified 24 h p.i to approximately capture a single cycle of infection.

RSV A2 [4] = assay: Quantification of infectious virus production (plaque assay); format: cell-based, Respiratory syncytial virus; conditions: Fig 3B; atorvastatin 3.5 uM, simvastatin 1.5 uM; supernatants of RSV A2-infected HEp-2; replicate values
Protocol: HEp-2 cells were seeded to six-well plates at a density of 1 × 10^6 cells per well and incubated overnight at 37 °C/5% CO2. The following morning, cells were infected with RSV A2 (MOI 1.0) and treated with drugs 2 h post-viral exposure. The supernatant, containing progeny virions, was collected 48 h p.i., snap frozen, and stored at −80 °C. Quantification of infectious virus particles was performed by a traditional plaque assay. HEp-2 cells were seeded to six-well plates at a density of 1.5 × 10^6 cells per well and grown to 90% confluency. Cells were incubated with serial dilutions of the collected supernatants for 90 min at 37 °C/5% CO2 under frequent agitation. The inoculant was then removed and replaced with 4 mL of 1:1 4% FBS DMEM-F12/1% agarose. Plates were incubated for 5 days at 37 °C/5% CO2. Cells were then fixed with 10% formalin for 30 min at room temperature. After fixation and removal of agarose from each well, the cells were stained with 0.05% neutral red and plaques were quantified under a dissecting microscope.

[5] = system: prenylated proteins (small GTPases); assay: Measurement of protein prenylation by click chemistry; format: cell-based; conditions: for GAPDH Normalized Intensity, Farnesylation / GAPDH Normalized Intensity, Geranylgeranylation / Raw Integrated Intensity, Farnesylation / Raw Integrated Intensity, Geranylgeranylation: + statin (atorvastatin 3.5 µM)
Protocol: HEp-2 cells were cultured in the presence of farnesyl alcohol azide (FAA) (SC-294586, Santa Cruz Biotechnology) or geranylgeranyl alcohol azide (GGAA) (C10249, Thermo Fisher Scientific) at a final concentration of 25 µM diluted in 10 mM aqueous NH4OH. Cells were infected with RSV A2 (MOI 0.5) and treated with drugs 2 h post-viral exposure. Cell lysis was performed on ice in RIPA buffer 48 h p.i., and prenylated proteins were reacted with biotin-PEG4-alkyne using the Click-iT Protein Reaction Buffer Kit (C10276, Thermo Fisher Scientific) as per the manufacturer’s protocol. Prenylated proteins in the processed samples were then visualized by western blot using a streptavidin-HRP conjugate (RPN1231, Cytiva) and Clarity ECL Substrate (1705061, Bio-Rad). Relative protein levels were quantified by densitometry in ImageJ (v1.52b).

RSV A2 [6] = assay: Immunofluorescence staining and microscopy of RSV F and N;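 on RSV N intensity (a.u.): fluorescence normalized to total nuclear count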
Protocol: HEp-2 cells were seeded to No. 1 glass coverslips (1014355117NR1, Thermo Fisher Scientific) for high-resolution confocal microscopy, or black, flat, microclear-bottom 96-well plates (655096, Greiner Bio-One) for high-throughput quantification of RSV F and N immunofluorescence. Cells were infected with RSV A2 (MOI 0.5). At 48 h p.i., cells were fixed in 4% paraformaldehyde for 30 min and permeabilized with 0.3% Triton X-100 for 10 min at room temperature. F and N proteins were probed using mouse anti-RSV F (RSV3216) and mouse anti-RSV N (RSV3132) mAbs (Bio-Rad Antibodies) diluted 1:500 in PBS + 0.1% Tween-20 (PBST), or mouse anti-RSV F mAb Alexa Fluor 488 conjugate (Millipore Sigma, 133/1H) diluted 1:200 in PBST over a 1-h incubation at room temperature. This was followed by detection with secondary anti-mouse Fab fragments conjugated to Alexa Fluor 488 (4408) or 647 (4410) (Cell Signaling Technology) diluted 1:1000 in PBST over a 1-h incubation at room temperature. Fluorescent images were acquired using either the Cellomics ArrayScan VTI HCS Reader at ×10 magnification (for quantification) or Olympus IX81 Spinning Disk Confocal microscope at ×60 magnification with oil immersion (for high-resolution images). F and N immunofluorescence was quantified in CellProfiler and normalized to total nuclear count.

Compound: CC(C)c1c(C(=O)Nc2ccccc2)c(-c2ccccc2)c(-c2ccc(F)cc2)n1CC[C@@H](O)C[C@@H](O)CC(=O)O [Atorvastatin, Atorvastatin calcium salt trihydrate]
- RSV inhibition in the screen (RSV-GFP [1]; HEp-2, RSV-GFP): inhibit RSV at low micromolar concentrations
- inhibition at 10 µM (RSV-GFP [1]; human respiratory syncytial virus, HEp-2, read-out: RSV-GFP inhibition (%)): 56.4%
- cellular viability by MTT assay at EC50 (HEp-2 cells): no significant difference from baseline
- doses with significant reduction in viability (HEp-2 cells; human): greater than 10.0 µM
- reduction of RSV-GFP infection (RSV-GFP [2]; atorvastatin 5.0 µM, 72 h post-infection, mean ± SEM): 67.4 ± 11.5%
- cellular viability of PNECs (RSV-GFP [2]; microscopic appearance and barrier integrity): Cellular viability remained intact
- antiviral effect by time of addition (RSV-GFP [3]; added 8–22 h p.i.): loss in antiviral effect
- antiviral effect by time of addition (RSV-GFP [3]; added 2 h pre-infection vs. 2–6 h post-infection): No difference in antiviral effect
- RSV-GFP inhibition (% of maximum) (RSV-GFP [3]; atorvastatin 3.5 µM added 2 h p.i.): 93.8741 % of maximum and 100 % of maximum and 63.7076 % of maximum and 87.4617 % of maximum
- RSV-GFP inhibition (% of maximum) (RSV-GFP [3]; atorvastatin 3.5 µM added 4 h p.i.): 79.9181 % of maximum and 67.4308 % of maximum and 95.7721 % of maximum and 95.1175 % of maximum
- RSV-GFP inhibition (% of maximum) (RSV-GFP [3]; atorvastatin 3.5 µM added 6 h p.i.): 73.0198 % of maximum and 92.897 % of maximum and 83.1029 % of maximum and 75.3925 % of maximum
- RSV-GFP inhibition (% of maximum) (RSV-GFP [3]; atorvastatin 3.5 µM added 8 h p.i.): 73.881 % of maximum and 38.0526 % of maximum and 68.6457 % of maximum and 56.4404 % of maximum
- RSV-GFP inhibition (% of maximum) (RSV-GFP [3]; atorvastatin 3.5 µM added -2 h p.i.): 95.6726 % of maximum and 68.3345 % of maximum and 91.0474 % of maximum and 75.5348 % of maximum
- Virus titre (log10 PFU/mL) (RSV A2 [4]): 4.38 log10 PFU/mL and 4.4624 log10 PFU/mL and 4.176 log10 PFU/mL and 4.322 log10 PFU/mL
- GAPDH Normalized Intensity, Farnesylation ([5]; + RSV): 1.959 and 2.027
- GAPDH Normalized Intensity, Geranylgeranylation ([5]; + RSV): 0.9753 and 1.167
- Raw Integrated Intensity, Farnesylation ([5]; + RSV): 2027541 and 2238487
- Raw Integrated Intensity, Geranylgeranylation ([5]; + RSV): 1062035 and 1238827
- GAPDH Normalized Intensity, Farnesylation ([5]; - RSV): 1.992 and 1.8833
- GAPDH Normalized Intensity, Geranylgeranylation ([5]; - RSV): 0.8805 and 0.8849
- Raw Integrated Intensity, Geranylgeranylation ([5]; - RSV): 899910 and 921628
- Raw Integrated Intensity, Farnesylation ([5]; - RSV, one value per lane): 1842503 and 1809411
- effect on virus-induced small GTPase prenylation ([5]; atorvastatin 3.5 µM, 48 h p.i.): largely mitigate these virus-induced increases to small GTPase prenylation
- RSV N intensity (a.u.) (RSV A2 [6]; Fig 5C, statin alone: atorvastatin 3.5 uM, simvastatin 1.5 uM): 0.7327 a.u. and 0.5028 a.u. and 0.4468 a.u. and 0.7381 a.u.
- effect of atorvastatin co-treatment with CN04 (RSV A2 [6]; atorvastatin 3.5 µM with CN04 1.0 µM): negated the pro-viral effects of Rho GTPase activation
